Measurements reported in ChEMBL document CHEMBL1201862, “PubChem BioAssay data set” (2004).
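Step 1: Grow cells in 96-well plates. Step 2: Expose to compound for 48 hours at 5 concentrations. Step 3: Interpolate endpoints linearly; if unreached, use highest concentration. GI50 = concentration required for 50% inhibition of growth.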 The source made the active and inactive calls. Cut-off read from the data, not from the text of the source: active = GI50 up to about 1.1 µM and inactive = higher.

Assays:
Assay in all cases: NCI anticancer screen, dose series, 48 h
[1] = system: A498
[2] = system: COLO 205
[3] = system: SK-MEL-28
[4] = system: OVCAR-3
[5] = system: LOX IMVI
[6] = system: SNB-78
[7] = system: DLD-1
[8] = system: RXF 393
[9] = system: RPMI-8226
[10] = system: SK-OV-3
[11] = system: HCT-15
[12] = system: SF-295
[13] = system: HL-60
[14] = system: HOP-18
[15] = system: DMS-114
[16] = system: SK-MEL-5
[17] = system: SN12C
[18] = system: U-251
[19] = system: SK-MEL-2
[20] = system: HOP-62
[21] = system: NCI/ADR-RES
[22] = system: IGROV-1
[23] = system: OVCAR-4
[24] = system: CCRF-CEM
[25] = system: NCI-H23
[26] = system: UACC-257
[27] = system: MOLT-4
[28] = system: SW-620
[29] = system: SNB-75
[30] = system: MCF7
[31] = system: XF498
[32] = system: Malme-3M
[33] = system: KM-20L2
[34] = system: CAKI-1
[35] = system: K562
[36] = system: UO-31
[37] = system: KM12
[38] = system: UACC-62
[39] = system: HCC 2998
[40] = system: A549
[41] = system: SF-268
[42] = system: NCI-H460
[43] = system: EKVX
[44] = system: DMS-273
[45] = system: NCI-H522
[46] = system: HT-29
[47] = system: SF-539
[48] = system: M19-MEL
[49] = system: HCT-116
[50] = system: OVCAR-8
[51] = system: OVCAR-5
[52] = system: SNB-19
[53] = system: HOP-92

Measured: GI50

NC(=O)NN=C(CS)CS
inactive: [1] 14.9 µM | [2] 23.1 µM | [3] 30.6 µM | [4] 23.3 µM | [5] 15.7 µM | [6] 41 µM | [7] 34 µM | [8] 40.2 µM | [9] 46.1 µM | [10] 89.3 µM | [12] 23.7 µM | [14] 26.7 µM | [15] 30.5 µM | [16] 17 µM | [17] 24.2 µM | [18] 21.6 µM | [19] 20.8 µM | [21] 25.6 µM | [22] 39.1 µM | [23] 25.4 µM | [24] 36.9 µM | [25] 22.7 µM | [26] 19.5 µM | [27] 23.7 µM | [28] 28.4 µM | [29] 33 µM | [30] 24 µM | [32] 19.7 µM | [33] 19.8 µM | [34] 23.6 µM | [35] 51.1 µM | [36] 18.8 µM | [37] 33.2 µM | [38] 25.3 µM | [39] 31 µM | [40] 22 µM | [41] 34.8 µM | [42] 23.7 µM | [43] 18.8 µM | [44] 20 µM | [45] 22.6 µM | [46] 20.7 µM | [47] 21.8 µM | [48] 17.5 µM | [49] 38.5 µM | [50] 27.5 µM | [51] 24.1 µM | [52] 23.1 µM | [53] 21.9 µM
active: [13] 410 nM | [20] 492 nM | [31] < 10 nM
22.8 µM: [11]
